What was measured:
Assay type in all cases: in vivo
scalp hair of a human = assay: hair styling gel with the analog applied daily to the scalp, hair colour; settings: 0.001 mg/ml in hair styling gel, approximately 2 ml daily to scalp, after a few months; self-observation
Description: [Sar9,Met (02)11 ]-substance P was formulated in a hair styling gel at a concentration of 0.001 mg/ml and approximately 2 ml were applied daily to my scalp. […] I estimate my head of hair to be about 40% darker. This observation is consistent with results observed on radiation-exposed mice that had been given the substance P analog.

radiation-exposed mice = assay: hair regrowth in radiation-exposed mice given the substance P analog
human [1] = assay: residual muscle pain after a very hard workout
Excerpt: I ran five miles with four 150M build-ups and threw a 6 Kg shot-put for the first time. This workout was followed by a session of weightlifting. Before I began treatment with the substance P analog I would take Advil™ at least twice on the day of the work out to prevent muscle pain.

human [2] = assay: running speed (150M build-ups, timed 200M run)
Excerpt: After taking the analog, I “felt” much faster in my 150M build-ups than previously.

human [3] = assay: sleep pattern
Description: I have 6 hours sleep on a regular basis. Approximately a week ago, after taking the analog daily for 2 weeks, I was getting 5 hours sleep.

human [4] = assay: short-term memory; settings: since beginning to apply the analog; names and telephone numbers
Excerpt: I can remember people's names and telephone numbers more readily.

human [5] = assay: visual accommodation (adjustment time between long and near vision)

Substance: [Sar9,Met (02)11 ]-substance P
- head of hair darker (estimate) (scalp hair of a human): about 40%
- overall color of hair (scalp hair of a human): becoming more like my original brown color
- regrowth of hair lost upon radiation exposure (radiation-exposed mice; radiation-exposed mice given the substance P analog): regrew hair that was lost upon radiation exposure
- colour of new hair growth (radiation-exposed mice; radiation-exposed mice, versus non-exposed area): darker than in the non-exposed area
- reduction in residual muscle pain (human [1]; after a very hard workout, self-observation): very large reduction
- tightness or soreness in right arm/shoulder from throwing the shot (human [1]; after taking the analog): nor did I experience tightness or soreness
- muscle pain after the hard workout (human [1]; five mile run, four 150M build-ups, 6 Kg shot-put, weightlifting, after taking the analog): no muscle pain
- perceived speed in 150M build-ups (human [2]; after taking the analog, versus previously): much faster
- time in a 200M run (human [2]; timed run): significantly improved
- quality of sleep, later (human [3]; about a week later (now)): the vivid dreams and less waking up continue
- hours of sleep per night, later (human [3]; about a week later (now), reverted): six
- quality of sleep (human [3]; after taking the analog daily for 2 weeks): deeper with more vivid dreams and less “waking up.”
- hours of sleep (human [3]; after taking the analog daily for 2 weeks, regular basis 6 hours): 5 h
- memory problems (human [4]): less “middle-aged” memory problems
- adjustment time between long and near vision after 97 days (human [5]; after 97 days of administration): little adjustment time
- adjustment time between long and near vision (human [5]; during administration): shorter and continues to diminish

Source: US20080167248A1, “Anti-Aging Effects Of Substance P” (IMMUNEREGEN BIOSCIENCES, INC., priority 2004, published 2008)
